Measured values taken from US6737383B1, “Herbicidal oxadiazolidines” (priority 1999, dated 2004).

What was measured:
cocklebur = assay: Test B pre/postemergence cocklebur; format: in vivo, Xanthium strumarium
Summary of the method: (§1)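 Test chemicals in a non-phytotoxic solvent mixture with surfactant were sprayed preemergence onto planted seeds and postemergence onto plants 2 to 18 cm tall (1- to 4-leaf stage). After twelve to sixteen days in a greenhouse, injury was visually rated against untreated controls from 0 (no effect) to 10 (complete control).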

crabgrass = assay: Test B pre/postemergence crabgrass; format: in vivo, Digitaria sanguinalis
Summary of the method: as §1

wheat = assay: Test B pre/postemergence wheat; format: in vivo, Triticum aestivum
Summary of the method: as §1

wild oat [1] = assay: Test B pre/postemergence wild oat; format: in vivo, Avena fatua
Summary of the method: as §1

common ragweed = assay: Test D common ragweed; format: in vivo, Ambrosia elatior; settings: Preemergence, 0 to 100 scale
Text: (§2) Seeds, tubers, or plant parts of Alexandergrass (Brachiaria plantaginea), bermuda-grass (Cynodon dactylon), common pursiane (Portulaca oleracea), common ragweed (Ambrosia elatior), common groundsel (Senecio vulgaris), dallisgrass (Paspalum dilatatum), goosegrass (Eleusine indica), guineagrass (Panicum maximum), itchgrass (Rottboellia exaltata), Johnson grass (Sorghum halepense), large crabgrass (Digitaria sanguinalis), pitted morningglory (Ipomoea lacunosa), purple nutsedge (Cyperus rotundus), sandbur (Cenchrus echinatus), sourgrass (Trichachne insularis), Spanishneedles (Bidens bipinnata), surinam grass (Brachiaria decumbens) and tall mallow (Malva sylvestris) were planted into greenhouse pots of flats containing greenhouse planting medium. Plant species were grown in separate pots or individual compartments. Preemergence applications were made within one day of planting the seed or plant part.
(§3) Test chemicals were formulated in a non-phytotoxic solvent mixture which included a surfactant and applied preemergence to the surface of the pot containing seeds in a sandy loam soil. Untreated control pots and treated pots were placed in the greenhouse for growth and visually evaluated for injury 14 to 21 days after herbicide application. Plant response ratings, summarized in Table C, are based on a 0 to 100 scale where 0 is no injury and 100 is complete control. A dash (−) response means no test result.

guineagrass = assay: Test D guineagrass; format: in vivo, Panicum maximum; settings: Preemergence, 0 to 100 scale
Summary of the method: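 Each weed species is planted in its own pot or compartment; preemergence doses go on the sandy loam surface within a day. The formulation is a surfactant-containing, non-phytotoxic solvent blend. Ratings come from visual comparison with untreated controls 14 to 21 days later, where 100 means complete control.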

large crabgrass = assay: Test D large crabgrass; format: in vivo, Digitaria sanguinalis; settings: Preemergence, 0 to 100 scale
Text: as §2, §3

purple nutsedge = assay: Test D purple nutsedge; format: in vivo, Cyperus rotundus; settings: Preemergence, 0 to 100 scale
Text: as §2, §3

winter wheat [2] = assay: Test E winter wheat; format: in vivo, Triticum aestivum; settings: Postemergence
Summary of the method: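 Compound formulated with surfactant in a non-phytotoxic solvent (postemergence: young 1- to 4-leaf plants); held in greenhouse approx. 21–28 days; visual assessment against untreated plants.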

blackgrass = assay: Test E blackgrass; format: in vivo, Alopecurus myosuroides; settings: Preemergence
green foxtail = assay: Test E green foxtail; format: in vivo, Setaria viridis; settings: Preemergence
Italian ryegrass = assay: Test E Italian ryegrass; format: in vivo, Lolium multiflorum; settings: Preemergence
winter wheat [3] = assay: Test E winter wheat; format: in vivo, Triticum aestivum; settings: Preemergence
wild oat [4] = assay: Test E wild oat; format: in vivo, Avena fatua; settings: Preemergence
winter barley = assay: Test E winter barley; format: in vivo, Hordeum vulgare; settings: Preemergence
[5] = Postemergence, Rate 62 g/ha, scale 0 to 10, 0 is no effect, 10 is complete control
[6] = Postemergence, Rate 250 g/ha, scale 0 to 10, 0 no effect, 10 complete control
[7] = Postemergence, Rate 1000 g/ha, scale 0 to 10 (0 no effect, 10 complete control)
[8] = Preemergence, Rate 31 g/ha, visual rating, scale 0 to 10 (0 no effect, 10 complete control)
[9] = Preemergence, Rate 62 g/ha, scale 0 to 10, 0 is no effect, 10 is complete control
[10] = Preemergence, Rate 125 g/ha, scale 0 to 10 (0 no effect, 10 complete control)
[11] = Preemergence, Rate 250 g/ha, scale of 0 to 10 where 0 is no effect and 10 is complete control
[12] = Preemergence, Rate 500 g/ha, scale 0 (no effect) to 10 (complete control)
[13] = Rate 31 g/ha, Postemergence, scale 0 to 10
[14] = Rate 125 g/ha, Postemergence, scale 0 to 10, 0 no effect, 10 complete control
[15] = Rate 500 g/ha, Postemergence, 0 to 10 scale (0 no effect, 10 complete control)
[16] = Rate 1000 g/ha, Preemergence, scale 0 to 10 (0 no effect, 10 complete control)
[17] = Rate 16 g/ha, 0 no injury, 100 complete control
[18] = Rate 32 g/ha, 0 no injury, 100 complete control
[19] = Rate 64 g/ha, 0 no injury, 100 complete control
[20] = Rate 125 g/ha, 0 no injury, 100 complete control
[21] = Rate 125 g/ha, 0 to 100 scale (0 no effect, 100 complete control)
[22] = Rate 500 g/ha, 0 to 100 scale where 0 is no effect and 100 is complete control
[23] = Rate 1000 g/ha, 0 to 100 scale where 0 is no effect and 100 is complete control

With `Cc1ccccc1-n1c(=O)on(C(=O)N(c2ccc(F)cc2)C(C)C)c1=O` [Compound 4] the “Cocklebur plant response rating” value (cocklebur; [5]) was 0, the “Cocklebur plant response rating” value (cocklebur; [6]) was 6 and the “Cocklebur plant response rating” value (cocklebur; [7]) was 8. For the same compound, the “Cocklebur plant response rating” value (cocklebur; [8]) was 0, the “Plant response rating, Cocklebur” value (cocklebur; [9]) was 0 and the “Plant response rating, Cocklebur” value (cocklebur; [10]) was 0. For the same compound, the “Plant response rating, Cocklebur” value (cocklebur; [11]) was 0, the “Cocklebur plant response rating” value (cocklebur; [12]) was 0 and the “Cocklebur plant response rating” value (cocklebur; [13]) was 0. For the same compound, the “Cocklebur plant response rating” value (cocklebur; [14]) was 2, the “Cocklebur plant response rating” value (cocklebur; [15]) was 6 and the “Plant response rating, Cocklebur” value (cocklebur; [16]) was 0. The “Crabgrass plant response rating” value (crabgrass; [5]) was 0, the “Crabgrass plant response rating” value (crabgrass; [6]) was 8 and the “Crabgrass plant response rating” value (crabgrass; [7]) was 8. For the same compound, the “Crabgrass plant response rating” value (crabgrass; [8]) was 3, the “Plant response rating, Crabgrass” value (crabgrass; [9]) was 3 and the “Plant response rating, Crabgrass” value (crabgrass; [10]) was 10. For the same compound, the “Plant response rating, Crabgrass” value (crabgrass; [11]) was 10, the “Crabgrass plant response rating” value (crabgrass; [12]) was 10 and the “Crabgrass plant response rating” value (crabgrass; [13]) was 0. The “Crabgrass plant response rating” value (crabgrass; [14]) was 5, the “Crabgrass plant response rating” value (crabgrass; [15]) was 8 and the “Plant response rating, Crabgrass” value (crabgrass; [16]) was 10. For the same compound, the “Wheat plant response rating” value (wheat; [5]) was 0, the “Wheat plant response rating” value (wheat; [6]) was 0 and the “Wheat plant response rating” value (wheat; [7]) was 0. For the same compound, the “Wheat plant response rating” value (wheat; [8]) was 0, the “Plant response rating, Wheat” value (wheat; [9]) was 0 and the “Plant response rating, Wheat” value (wheat; [10]) was 0. For the same compound, the “Plant response rating, Wheat” value (wheat; [11]) was 0, the “Wheat plant response rating” value (wheat; [12]) was 0 and the “Wheat plant response rating” value (wheat; [14]) was 0. For the same compound, the “Plant response rating, Wheat” value (wheat; [16]) was 0, the “Wild oats plant response rating” value (wild oat [1]; [5]) was 0 and the “Wild oats plant response rating” value (wild oat [1]; [6]) was 0. For the same compound, the “Wild oats plant response rating” value (wild oat [1]; [7]) was 0, the “Wild oats plant response rating” value (wild oat [1]; [8]) was 0 and the “Plant response rating, Wild oats” value (wild oat [1]; [10]) was 0. The “Plant response rating, Wild oats” value (wild oat [1]; [11]) was 4, the “Wild oats plant response rating” value (wild oat [1]; [12]) was 7 and the “Wild oats plant response rating” value (wild oat [1]; [14]) was 0. For the same compound, the “Plant response rating, Wild oats” value (wild oat [1]; [16]) was 8, the “Plant response rating, C. ragweed” value (common ragweed; [17]) was 0 and the “Plant response rating, C. ragweed” value (common ragweed; [18]) was 0. The “Plant response rating, C. ragweed” value (common ragweed; [19]) was 0, the “Plant response rating, C. ragweed” value (common ragweed; [20]) was 0 and the “Plant response rating, C. ragweed” value (common ragweed; Rate 250 g/ha) was 0. For the same compound, the “Plant response rating, C. ragweed” value (common ragweed; Rate 500 g/ha) was 0, the “Plant response rating, Guineagrass” value (guineagrass; [17]) was 20 and the “Plant response rating, Guineagrass” value (guineagrass; [18]) was 20. For the same compound, the “Plant response rating, Guineagrass” value (guineagrass; [19]) was 50, the “Plant response rating, Guineagrass” value (guineagrass; [20]) was 90 and the “Plant response rating, Guineagrass” value (guineagrass; Rate 250 g/ha) was 100. The “Plant response rating, Guineagrass” value (guineagrass; Rate 500 g/ha) was 100, the “Plant response rating, Large crabgrass” value (large crabgrass; [17]) was 100 and the “Plant response rating, Large crabgrass” value (large crabgrass; [18]) was 100. For the same compound, the “Plant response rating, Large crabgrass” value (large crabgrass; [19]) was 98, the “Plant response rating, Large crabgrass” value (large crabgrass; [20]) was 100 and the “Plant response rating, Large crabgrass” value (large crabgrass; Rate 250 g/ha) was 100. The “Plant response rating, Large crabgrass” value (large crabgrass; Rate 500 g/ha) was 100, the “Plant response rating, Purple nutsedge” value (purple nutsedge; [17]) was 0 and the “Plant response rating, Purple nutsedge” value (purple nutsedge; [18]) was 0. For the same compound, the “Purple nutsedge plant response rating” value (purple nutsedge; [19]) was 0, the “Purple nutsedge plant response rating” value (purple nutsedge; [20]) was 0 and the “Plant response rating, Purple nutsedge” value (purple nutsedge; Rate 250 g/ha) was 0. For the same compound, the “Plant response rating, Purple nutsedge” value (purple nutsedge; Rate 500 g/ha) was 0, the “Plant response rating, Wheat (winter)” value (winter wheat [2]; Rate 125 g/ha, 0 to 100 scale) was 0 and the “Plant response rating, Wheat (winter)” value (winter wheat [2]; Rate 250 g/ha, 0 to 100 scale (0 no effect, 100 complete control)) was 0. For the same compound, the “Plant response rating, Wheat (winter)” value (winter wheat [2]; Rate 1000 g/ha, 0 to 100 scale, 0 is no effect and 100 is complete control) was 0, the “Plant response rating, Wheat (winter)” value (winter wheat [2]; Rate 500 g/ha, 0 to 100 scale, 0 no effect, 100 complete control) was 0 and the “Plant response rating, Blackgrass” value (blackgrass; [21]) was 30. For the same compound, the “Plant response rating, Blackgrass” value (blackgrass; Rate 250 g/ha, 0 to 100 scale) was 50, the “Plant response rating, Blackgrass” value (blackgrass; [22]) was 90 and the “Plant response rating, Blackgrass” value (blackgrass; [23]) was 100. For the same compound, the “Plant response rating, Green foxtail” value (green foxtail; [21]) was 50, the “Plant response rating, Green foxtail” value (green foxtail; Rate 250 g/ha, 0 to 100 scale) was 55 and the “Plant response rating, Green foxtail” value (green foxtail; [22]) was 100. For the same compound, the “Plant response rating, Green foxtail” value (green foxtail; [23]) was 100, the “Plant response rating, I. Ryegrass” value (Italian ryegrass; [21]) was 20 and the “Plant response rating, I. Ryegrass” value (Italian ryegrass; Rate 250 g/ha, 0 to 100 scale) was 20. The “Plant response rating, I. Ryegrass” value (Italian ryegrass; [22]) was 50, the “Plant response rating, I. Ryegrass” value (Italian ryegrass; [23]) was 85 and the “Plant response rating, Wheat (winter)” value (winter wheat [3]; [21]) was 0. The “Plant response rating, Wheat (winter)” value (winter wheat [3]; Rate 250 g/ha, 0 to 100 scale) was 0, the “Plant response rating, Wheat (winter)” value (winter wheat [3]; [22]) was 0 and the “Plant response rating, Wheat (winter)” value (winter wheat [3]; [23]) was 0. For the same compound, the “Plant response rating, Wild oat” value (wild oat [4]; [21]) was 10, the “Plant response rating, Wild oat” value (wild oat [4]; [22]) was 25 and the “Plant response rating, Wild oat” value (wild oat [4]; [23]) was 50. The “Plant response rating, Barley (winter)” value (winter barley; [21]) was 10, the “Plant response rating, Barley (winter)” value (winter barley; Rate 250 g/ha, 0 to 100 scale) was 10 and the “Plant response rating, Barley (winter)” value (winter barley; [22]) was 10. The “Plant response rating, Barley (winter)” value (winter barley; [23]) was 10.
